Results from US12240837B2, “Chemokine receptor modulators and uses thereof” (RAPT THERAPEUTICS, INC., priority 2022, dated 2025).

Biological target: T1, CCR4 receptor (Homo sapiens, UniProt P51679)
T1 construct: beta-galactosidase enzyme-fragment tag (receptor modification for beta-arrestin complementation); expressed in transfected cells; host or cells: CHO-K1
T1 sequence (P51679 1-360): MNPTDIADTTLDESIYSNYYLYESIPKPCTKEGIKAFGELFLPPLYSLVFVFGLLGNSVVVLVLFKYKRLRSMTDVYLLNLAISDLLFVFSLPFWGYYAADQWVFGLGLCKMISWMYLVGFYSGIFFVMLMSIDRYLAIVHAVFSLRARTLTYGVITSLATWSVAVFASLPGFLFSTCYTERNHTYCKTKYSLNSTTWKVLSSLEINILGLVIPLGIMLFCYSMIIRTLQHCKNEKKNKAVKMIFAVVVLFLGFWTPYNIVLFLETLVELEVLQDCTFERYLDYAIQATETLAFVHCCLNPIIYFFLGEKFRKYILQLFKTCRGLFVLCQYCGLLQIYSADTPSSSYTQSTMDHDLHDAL
Assay: CCR4 antagonist activity in beta-arrestin cellular assay (PathHunter chemiluminescence)
Type: cell-based
Conditions: CHO-K1 cells expressing CCR4; 30 min pre-incubation; CCL22 challenge at EC80 (15 nM) for 90 minutes; read-out: Potency (CCR4 antagonist IC50 in the β-arrestin assay)
Experimental: CCR4 Antagonistic Activity was assessed in Beta-Arrestin Cellular Assay. Compounds were assessed in CHO-K1 cells expressing the CCR4 receptor modified to enable β-glactosidase detection of p-arrestin agonist activity stimulated by CCL22 in a chemiluminescence assay. Cells were seeded in a total volume of 20 μL into white walled, 384-well microplates and incubated at 37° C. prior to testing. Cells were pre-incubated with test compound for 30 min at 37° C. followed by agonist challenge with CCL22 at the EC80 concentration (15 nM) for 90 minutes. Assay signal was generated through a single addition of 12.5 or 15 μL (50% v/v) of PathHunter Detection reagent cocktail, followed by a one hour incubation at room temperature. Microplates were read following signal generation with a PerkinElmer Envision™ instrument for chemiluminescent signal detection. Antagonist activity was analyzed using CBIS data analysis suite (ChemInnovation, CA). Antagonist activity was characterized as percentage inhibition calculated using the following formula: % Inhibition=100%×(1−(mean RLU of test sample−mean RLU of vehicle control)/(mean RLU of EC80 control−mean RLU of vehicle control)).
An IC50 of >500 nM is designated as Potency C, an IC50 of between 500 nM and 200 nM is designated as Potency B and an IC50 of <200 nM is designated as Potency A.

Compound	IC50 [nM]
Cc1nc(N2CCC(C3CCCCN3)C2)nc(N[C@H](C)c2ccc(Cl)cc2Cl)c1Cl (mixture of isomers) [Example 10, 5-chloro-N—((R)-1-(2,4-dichlorophenyl)ethyl)-6-methyl-2-(3-(piperidin-2-yl)pyrrolidin-1-yl)pyrimidin-4-amine]	200 to 500
Cc1nc(N2CCC(C3CCCN(CCC(=O)O)C3)CC2)nc(N[C@H](C)c2ccc(Cl)cc2Cl)c1Cl (stereo partly drawn) [Example 17, 3-(1′-(5-chloro-4-(((R)-1-(2,4-dichlorophenyl)ethyl)amino)-6-methylpyrimidin-2-yl)-[3,4′-bipiperidin]-1-yl)propanoic Acid]	< 200
Cc1nc(N2CCC(C3CCCN(C4CC(C(=O)O)C4)C3)CC2)nc(N[C@H](C)c2ccc(Cl)cc2Cl)c1Cl (stereo partly drawn) [Example 13, 3-(1′-(5-chloro-4-(((R)-1-(2,4-dichlorophenyl)ethyl)amino)-6-methylpyrimidin-2-yl)-[3,4′-bipiperidin]-1-yl)cyclobutane-1-carboxylic Acid]	< 200
C[C@@H](Nc1nc(N2CCC(C3CCCN(C4CC(C)(C(=O)O)C4)C3)CC2)ncc1Cl)c1ccc(Cl)cc1Cl (mixture of isomers) [Example 6, 3-(1′-(5-chloro-4-(((R)-1-(2,4-dichlorophenyl)ethyl)amino)pyrimidin-2-yl)-[3,4′-bipiperidin]-1-yl)-1-methylcyclobutane-1-carboxylic Acid]	< 200
Cc1nc(N2CCC(C3CCCN(C4CC(C)(C(=O)O)C4)C3)CC2)nc(N[C@H](C)c2ccc(Cl)cc2Cl)c1Cl (stereo partly drawn) [Example 2, 3-(1′-(5-chloro-4-(((R)-1-(2,4-dichlorophenyl)ethyl)amino)-6-methylpyrimidin-2-yl)-[3,4′-bipiperidin]-1-yl)-1-methylcyclobutane-1-carboxylic Acid]	< 200
C[C@@H](Nc1nc(N2CCC(C3CCCCN3C3CC(C)(C(=O)O)C3)C2)ncc1Cl)c1ccc(Cl)cc1Cl (stereo partly drawn) [Example 9, 3-(2-(1-(5-chloro-4-(((R)-1-(2,4-dichlorophenyl)ethyl)amino)pyrimidin-2-yl)pyrrolidin-3-yl)piperidin-1-yl)-1-methylcyclobutane-1-carboxylic Acid]	< 200
Cc1nc(N2CCC(C3CCCN(C4CC(C)(C(=O)O)C4)C3)C2)nc(N[C@H](C)c2ccc(Cl)cc2Cl)c1Cl (stereo partly drawn) [Example 1, 3-(3-(1-(5-chloro-4-(((R)-1-(2,4-dichlorophenyl)ethyl)amino)-6-methylpyrimidin-2-yl)pyrrolidin-3-yl)piperidin-1-yl)-1-methylcyclobutane-1-carboxylic Acid]	< 200
Cc1nc(N2CCC(C3CCCN(C(C)C(=O)O)C3)CC2)nc(N[C@H](C)c2ccc(Cl)cc2Cl)c1Cl (stereo partly drawn) [Example 14, 2-(1′-(5-chloro-4-(((R)-1-(2,4-dichlorophenyl)ethyl)amino)-6-methylpyrimidin-2-yl)-[3,4′-bipiperidin]-1-yl)propanoic Acid]	< 200
C[C@@H](Nc1nc(N2CCC(C3CCCN(CCC(=O)O)C3)CC2)ncc1Cl)c1ccc(Cl)cc1Cl (stereo partly drawn) [Example 16, 3-(1′-(5-chloro-4-(((R)-1-(2,4-dichlorophenyl)ethyl)amino)pyrimidin-2-yl)-[3,4′-bipiperidin]-1-yl)propanoic Acid]	< 200
C[C@@H](Nc1nc(N2CCC(C3CCCCN3)C2)ncc1Cl)c1ccc(Cl)cc1Cl (mixture of isomers) [Example 8, 5-chloro-N—((R)-1-(2,4-dichlorophenyl)ethyl)-2-(3-(piperidin-2-yl)pyrrolidin-1-yl)pyrimidin-4-amine]	< 200
C[C@@H](Nc1nc(N2CCC(C3CCCN(C4CC(C(=O)O)C4)C3)CC2)ncc1Cl)c1ccc(Cl)cc1Cl (stereo partly drawn) [Example 12, 3-(1′-(5-chloro-4-(((R)-1-(2,4-dichlorophenyl)ethyl)amino)pyrimidin-2-yl)-[3,4′-bipiperidin]-1-yl)cyclobutane-1-carboxylic Acid]	< 200
Cc1nc(N2CCC(C3CCCCN3C3CC(C)(C(=O)O)C3)C2)nc(N[C@H](C)c2ccc(Cl)cc2Cl)c1Cl (stereo partly drawn) [Example 11, 3-(2-(1-(5-chloro-4-(((R)-1-(2,4-dichlorophenyl)ethyl)amino)-6-methylpyrimidin-2-yl)pyrrolidin-3-yl)piperidin-1-yl)-1-methylcyclobutane-1-carboxylic Acid]	200 to 500
CC(C(=O)O)N1CCCC(C2CCN(c3ncc(Cl)c(N[C@H](C)c4ccc(Cl)cc4Cl)n3)CC2)C1 (stereo partly drawn) [Example 15, 2-(1′-(5-chloro-4-(((R)-1-(2,4-dichlorophenyl)ethyl)amino)pyrimidin-2-yl)-[3,4′-bipiperidin]-1-yl)propanoic Acid]	< 200
Cc1nc(N2CCC(C3CCN(C4CC(C)(C(=O)O)C4)C3)C2)nc(N[C@H](C)c2ccc(Cl)cc2Cl)c1Cl (stereo partly drawn) [Example 4, 3-(1′-(5-chloro-4-(((R)-1-(2,4-dichlorophenyl)ethyl)amino)-6-methylpyrimidin-2-yl)-[3,3′-bipyrrolidin]-1-yl)-1-methylcyclobutane-1-carboxylic Acid]	200 to 500
C[C@@H](Nc1nc(N2CCC(C3CCN(C4CC(C)(C(=O)O)C4)C3)C2)ncc1Cl)c1ccc(Cl)cc1Cl (stereo partly drawn) [Example 7, 3-(1′-(5-chloro-4-(((R)-1-(2,4-dichlorophenyl)ethyl)amino)pyrimidin-2-yl)-[3,3′-bipyrrolidin]-1-yl)-1-methylcyclobutane-1-carboxylic Acid]	200 to 500
C[C@@H](Nc1nc(N2CCC(C3CCCN(C4CC(C)(C(=O)O)C4)C3)C2)ncc1Cl)c1ccc(Cl)cc1Cl (stereo partly drawn) [Example 5, 3-(3-(1-(5-chloro-4-(((R)-1-(2,4-dichlorophenyl)ethyl)amino)pyrimidin-2-yl)pyrrolidin-3-yl)piperidin-1-yl)-1-methylcyclobutane-1-carboxylic Acid]	< 200
Cc1nc(N2CCC(C3CN(C4CC(C)(C(=O)O)C4)C3)C2)nc(N[C@H](C)c2ccc(Cl)cc2Cl)c1Cl (mixture of isomers) [Example 3, 3-(3-(1-(5-chloro-4-(((R)-1-(2,4-dichlorophenyl)ethyl)amino)-6-methylpyrimidin-2-yl)pyrrolidin-3-yl)azetidin-1-yl)-1-methylcyclobutane-1-carboxylic Acid]	> 500
